Patent US12565491B2, “(Isopropyl-triazolyl)pyridinyl-substituted benzooxazinone or benzothiazinone derivatives and use thereof” (HK INNO.N CORPORATION, priority 2018, dated 2026)

These molecules were tested against T1, ASK-1 enzyme (Homo sapiens, UniProt Q99683) (assay: Inhibitory ability against ASK-1 enzyme activity (ADP-Glo Kinase Assay)). Conditions: 250 μM ATP, MBP substrate, 30° C. for 40 minutes.
T1 construct: purchased Signal Chem M13-11G-10
Assay type: biochemical
Procedure: Experimental Example 1: Assay of Inhibitory Ability Against ASK-1 Enzyme Activity (ADP-Glo™ Kinase Assay)
In order to evaluate the inhibitory ability of the compounds of Examples 1 to 25 against ASK-1 enzyme activity, the following experiment was carried out using ADP-Glo™ (Promega, Cat. No. V9101). Each of the compounds was prepared into a solution at concentrations of 0.32 nM, 1.6 nM, 8 nM, 40 nM, 200 nM, 1,000 nM by adding a kinase buffer solution (40 mM Tris, 20 mM MgCl2, 0.1 mg/mL bovine serum albumin in H2O). Subsequently, 250 μM of ATP (Promega, Cat. No. V915A) and 0.5 g/L of MBP substrate (Signal Chem, Cat. No. 42-51N) were added thereto, and the mixture was reacted at 30° C. for 40 minutes in the presence of 15 ng of ASK-1 enzyme (Signal Chem, Cat. No. M13-11G-10). Then, the ADP-Glo™ reagent and a kinase detection reagent were sequentially added thereto and reacted for 40 minutes and 10 minutes, respectively. After completion of the reaction, luminescence was measured using a Synergy™ NEO microplate reader (BioTEK, NEOB-1311189).
The inhibitory ability of the compounds of Examples 1 to 25 against ASK-1 enzyme activity was verified by analyzing data from the measured RLU values. Specifically, the inhibitory ability against ASK-1 enzyme activity was assessed by deriving the residual activity percentage of the ASK-1 enzyme in the samples treated with the compounds at the concentration to be tested, while using the RLU value of the sample not treated with the compounds as a 100% control.

T1 sequence (Q99683 649-946 limits assumed): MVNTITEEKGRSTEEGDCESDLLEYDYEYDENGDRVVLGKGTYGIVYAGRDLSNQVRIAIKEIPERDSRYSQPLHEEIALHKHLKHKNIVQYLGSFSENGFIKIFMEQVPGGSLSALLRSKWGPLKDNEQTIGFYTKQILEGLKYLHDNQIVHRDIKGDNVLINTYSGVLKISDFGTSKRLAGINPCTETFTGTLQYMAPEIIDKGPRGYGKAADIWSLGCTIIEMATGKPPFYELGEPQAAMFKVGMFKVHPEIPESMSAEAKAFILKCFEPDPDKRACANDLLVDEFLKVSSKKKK

Structure (SMILES)	IC50 [nM]
CC(C)n1cnnc1-c1cccc(N2COc3ccc(-c4ccc(C5(C#N)CC5)cc4)cc3C2=O)n1 [Example 12, 1-(4-(3-(6-(4-isopropyl-4H-1,2,4-triazol-3-yl)pyridin-2-yl)-4-oxo-3,4-dihydro-2H-benzo[e][1,3]oxazin-6-yl)phenyl) cyclopropanecarbonitrile]	17
Cc1cc2c(cc1-c1cnn(C3CCOC3)c1)C(=O)N(c1cccc(-c3nncn3C(C)C)n1)CO2 (stereo not shown) [Example 18, 3-(6-(4-isopropyl-4H-1,2,4-triazol-3-yl)pyridin-2-yl)-7-methyl-6-(1-(tetrahydrofuran-3-yl)-1H-pyrazol-4-yl)-2,3-dihydro-4H-benzo[e][1,3]oxazin-4-one]	10.6
Cc1ccnc(Nc2ccc3c(c2)C(=O)N(c2cccc(-c4nncn4C(C)C)n2)CO3)n1 [Example 4, 3-(6-(4-isopropyl-4H-1,2,4-triazol-3-yl)pyridin-2-yl)-6-(4-methylpyrimidin-2-ylamino)-2,3-dihydro-4H-benzo[e][1,3]oxazin-4-one]	7.8
CC(C)n1cnnc1-c1cccc(N2COc3ccc(-c4ccc(Cn5cccn5)cc4)cc3C2=O)n1 [Example 13, 6-(4-((1H-pyrazol-1-yl)methyl)phenyl)-3-(6-(4-isopropyl-4H-1,2,4-triazol-3-yl)pyridin-2-yl)-2,3-dihydro-4H-benzo[e][1,3]oxazin-4-one]	46.4
Cc1cc2c(cc1-c1cnn(C(C)C)c1)C(=O)N(c1cccc(-c3nncn3C(C)C)n1)CO2 [Example 15, 6-(1-isopropyl-1H-pyrazol-4-yl)-3-(6-(4-isopropyl-4H-1,2,4-triazol-3-yl)pyridin-2-yl)-7-methyl-2,3-dihydro-4H-benzo[e][1,3]oxazin-4-one]	4.5
CC(C)n1cnnc1-c1cccc(N2COc3ccc(Nc4nccc(C(F)F)n4)cc3C2=O)n1 [Example 10, 6-(4-(difluoromethyl)pyrimidin-2-ylamino)-3-(6-(4-isopropyl-4H-1,2,4-triazol-3-yl)pyridin-2-yl)-2,3-dihydro-4H-benzo[e][1,3]oxazin-4-one]	7.2
CC(C)n1cnnc1-c1cccc(N2COc3ccc(-n4cnc(C5CC5)c4)cc3C2=O)n1 [Example 19, 6-(4-cyclopropyl-1H-imidazol-1-yl)-3-(6-(4-isopropyl-4H-1,2,4-triazol-3-yl)pyridin-2-yl)-2,3-dihydro-4H-benzo[e][1,3]oxazin-4-one]	4
CC(C)n1cnnc1-c1cccc(N2COc3ccc(-c4ccc(S(C)(=O)=O)cc4)cc3C2=O)n1 [Example 2, 3-(6-(4-isopropyl-4H-1,2,4-triazol-3-yl)pyridin-2-yl)-6-(4-(methylsulfonyl)phenyl)-2,3-dihydro-4H-benzo[e][1,3]oxazin-4-one]	50
CCOC(C)n1cc(-c2ccc3c(c2)C(=O)N(c2cccc(-c4nncn4C(C)C)n2)CO3)cn1 (stereo not shown) [Example 6, 6-(1-(1-ethoxyethyl)-1H-pyrazol-4-yl)-3-(6-(4-isopropyl-4H-1,2,4-triazol-3-yl)pyridin-2-yl)-2,3-dihydro-4H-benzo[e][1,3]oxazin-4-one]	29.2
CSc1ncc(-c2cc3c(cc2C)OCN(c2cccc(-c4nncn4C(C)C)n2)C3=O)cn1 [Example 17, 3-(6-(4-isopropyl-4H-1,2,4-triazol-3-yl)pyridin-2-yl)-7-methyl-6-(2-(methylthio)pyrimidin-5-yl)-2,3-dihydro-4H-benzo[e][1,3]oxazin-4-one]	7.8
CC(C)CCn1cc(-c2ccc3c(c2)C(=O)N(c2cccc(-c4nncn4C(C)C)n2)CO3)cn1 [Example 11, 6-(1-isopentyl-1H-pyrazol-4-yl)-3-(6-(4-isopropyl-4H-1,2,4-triazol-3-yl)pyridin-2-yl)-2,3-dihydro-4H-benzo[e][1,3]oxazin-4-one]	18.5
CC(C)Cn1cc(-c2ccc3c(c2)C(=O)N(c2cccc(-c4nncn4C(C)C)n2)CO3)cn1 [Example 9, 6-(1-isobutyl-1H-pyrazol-4-yl)-3-(6-(4-isopropyl-4H-1,2,4-triazol-3-yl)pyridin-2-yl)-2,3-dihydro-4H-benzo[e][1,3]oxazin-4-one]	11
Cc1cc2c(cc1-c1cncnc1)C(=O)N(c1cccc(-c3nncn3C(C)C)n1)CO2 [Example 16, 3-(6-(4-isopropyl-4H-1,2,4-triazol-3-yl)pyridin-2-yl)-7-methyl-6-(pyrimidin-5-yl)-2,3-dihydro-4H-benzo[e][1,3]oxazin-4-one]	20
CCOC(C)n1cc(-c2cc3c(cc2C)OCN(c2cccc(-c4nncn4C(C)C)n2)C3=O)cn1 (stereo not shown) [Example 20, 6-(1-(1-ethoxyethyl)-1H-pyrazol-4-yl)-3-(6-(4-isopropyl-4H-1,2,4-triazol-3-yl)pyridin-2-yl)-7-methyl-2,3-dihydro-4H-benzo[e][1,3]oxazin-4-one]	3.6
CC(C)n1cnnc1-c1cccc(N2COc3ccc(-c4ccncc4)cc3C2=O)n1 [Example 3, 3-(6-(4-isopropyl-4H-1,2,4-triazol-3-yl)pyridin-2-yl)-6-(pyridin-4-yl)-2,3-dihydro-4H-benzo[e][1,3]oxazin-4-one]	9.1
Cc1cc2c(cc1-c1cnn(CC3CC3)c1)C(=O)N(c1cccc(-c3nncn3C(C)C)n1)CO2 [Example 14, 6-(1-(cyclopropylmethyl)-1H-pyrazol-4-yl)-3-(6-(4-isopropyl-4H-1,2,4-triazol-3-yl)pyridin-2-yl)-7-methyl-2,3-dihydro-4H-benzo[e][1,3]oxazin-4-one]	4.4

More lines, now with the values ahead:

IC50 [nM]	Structure (SMILES)
38.8	CC(C)n1cnnc1-c1cccc(N2COc3ccc(-c4cnn(C5CCOC5)c4)cc3C2=O)n1 (stereo not shown) [Example 5, 3-(6-(4-isopropyl-4H-1,2,4-triazol-3-yl)pyridin-2-yl)-6-(1-(tetrahydrofuran-3-yl)-1H-pyrazol-4-yl)-2,3-dihydro-4H-benzo[e][1,3]oxazin-4-one]
6.1	CC(C)n1cc(-c2ccc3c(c2)C(=O)N(c2cccc(-c4nncn4C(C)C)n2)CS3)cn1 [Example 22, 6-(1-isopropyl-1H-pyrazol-4-yl)-3-(6-(4-isopropyl-4H-1,2,4-triazol-3-yl)pyridin-2-yl)-2,3-dihydro-4H-benzo[e][1,3]thiazin-4-one]
7.3	CC(C)n1cnnc1-c1cccc(N2CSc3ccc(-c4cnn(CC5CC5)c4)cc3C2=O)n1 [Example 21, 6-(1-(cyclopropylmethyl)-1H-pyrazol-4-yl)-3-(6-(4-isopropyl-4H-1,2,4-triazol-3-yl)pyridin-2-yl)-2,3-dihydro-4H-benzo[e][1,3]thiazin-4-one]
33.1	CC(C)n1cnnc1-c1cccc(N2COc3ccc(-c4cnn(C(F)F)c4)cc3C2=O)n1 [Example 7, 6-(1-(difluoromethyl)-1H-pyrazol-4-yl)-3-(6-(4-isopropyl-4H-1,2,4-triazol-3-yl)pyridin-2-yl)-2,3-dihydro-4H-benzo[e][1,3]oxazin-4-one]
13.8	CC(C)n1cnnc1-c1cccc(N2COc3ccc(-c4cnn(C5CC5)c4)cc3C2=O)n1 [Example 8, 6-(1-cyclopropyl-1H-pyrazol-4-yl)-3-(6-(4-isopropyl-4H-1,2,4-triazol-3-yl)pyridin-2-yl)-2,3-dihydro-4H-benzo[e][1,3]oxazin-4-one]
23.1	CC(C)n1cnnc1-c1cccc(N2CSc3ccc(-c4cnc(C5CC5)nc4)cc3C2=O)n1 [Example 23, 6-(2-cyclopropylpyrimidin-5-yl)-3-(6-(4-isopropyl-4H-1,2,4-triazol-3-yl)pyridin-2-yl)-2,3-dihydro-4H-benzo[e][1,3]thiazin-4-one]
76.8	Cc1ncc(-c2ccc3c(c2)C(=O)N(c2cccc(-c4nncn4C(C)C)n2)CS3)cn1 [Example 25, 3-(6-(4-isopropyl-4H-1,2,4-triazol-3-yl)pyridin-2-yl)-6-(2-methylpyrimidin-5-yl)-2,3-dihydro-4H-benzo[e][1,3]thiazin-4-one]
9.3	CC(C)n1cnnc1-c1cccc(N2COc3ccc(-c4cnn(CC5CC5)c4)cc3C2=O)n1 [Example 1, 6-(1-(cyclopropylmethyl)-1H-pyrazol-4-yl)-3-(6-(4-isopropyl-4H-1,2,4-triazol-3-yl)pyridin-2-yl)-2,3-dihydro-4H-benzo[e][1,3]oxazin-4-one]
26.2	CC(C)n1cnnc1-c1cccc(N2CSc3ccc(-c4cnn(C5CC5)c4)cc3C2=O)n1 [Example 24, 6-(1-cyclopropyl-1H-pyrazol-4-yl)-3-(6-(4-isopropyl-4H-1,2,4-triazol-3-yl)pyridin-2-yl)-2,3-dihydro-4H-benzo[e][1,3]thiazin-4-one]
